Test results taken from ChEMBL document CHEMBL1155726, “Seven new sesquiterpene glycosides from the root bark of Dictamnus dasycarpus” (J Nat Prod, 2001).
Calls of active or inactive are those of the source. No cut-off for these calls is given here.

System: Splenocyte
Assay: Immunomodulatory activity in mouse splenocyte assessed as stimulation of proliferation at 10 umole/L after 44 hrs by MTT assay in presence of ConA
Assay type: functional, cell-based

## CC(C)(O)[C@@H]1CC[C@]23CO[C@](C)(CC[C@@H]2O)[C@H]3[C@@H]1O[C@@H]1O[C@H](CO)[C@@H](O)[C@H](O)[C@H]1O
  Activity: Active
